In patent US7138361B2, “Herbicidal heterocycles” (E. I. du Pont de Nemours and Company, priority 2000, dated 2006):

How the values were obtained:
Type in all cases: in vivo
[1] = test system: Surinam grass (Brachiaria decumbens); assay: Test B postemergence
In short: (§1)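 Greenhouse test: chemicals are formulated in a surfactant-containing non-phytotoxic solvent and applied either preemergence to planted seeds or postemergence to plants 2 to 18 cm tall. Response is rated visually versus controls after 13 to 15 days, 0 meaning no effect and 100 complete control.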

[2] = test system: barnyardgrass (Echinochloa crus-galli); assay: Test B postemergence
In short: as §1

[3] = test system: blackgrass (Alopecurus myosuroides); assay: Test B postemergence
In short: as §1

[4] = test system: cocklebur (Xanthium strumarium); assay: Test B postemergence
In short: as §1

[5] = test system: crabgrass (Digitaria sanguinalis); assay: Test B postemergence; details: Rate 125 g/ha, scale 0 to 100, 0 no effect, 100 complete control
In short: as §1

[6] = test system: lambsquarters (Chenopodium album); assay: Test B postemergence; details: Rate 125 g/ha, scale 0 to 100, 0 no effect, 100 complete control
In short: as §1

[7] = test system: morning glory (Ipomoea hederacea); assay: Test B postemergence; details: Rate 125 g/ha, scale 0 to 100, 0 no effect, 100 complete control
In short: as §1

[8] = test system: pigweed (Amaranthus retroflexus); assay: Test B postemergence; details: Rate 125 g/ha, scale 0 to 100, 0 no effect, 100 complete control
In short: as §1

wild oat (Avena fatua) = assay: Test B postemergence; details: Rate 125 g/ha, scale 0 to 100, 0 no effect, 100 complete control
In short: as §1

[9] = test system: Surinam grass (Brachiaria decumbens); assay: Test B preemergence
In short: as §1

[10] = test system: barnyardgrass (Echinochloa crus-galli); assay: Test B preemergence
In short: as §1

[11] = test system: cocklebur (Xanthium strumarium); assay: Test B preemergence
In short: as §1

corn (Zea mays) = assay: Test B preemergence
In short: as §1

[12] = test system: crabgrass (Digitaria sanguinalis); assay: Test B preemergence
In short: as §1

[13] = test system: giant foxtail (Setaria faberii); assay: Test B preemergence
In short: as §1

[14] = test system: lambsquarters (Chenopodium album); assay: Test B preemergence
In short: as §1

[15] = test system: morning glory (Ipomoea hederacea); assay: Test B preemergence
In short: as §1

[16] = test system: pigweed (Amaranthus retroflexus); assay: Test B preemergence
In short: as §1

rice (Oryza saliva) [17] = assay: Test B preemergence
In short: as §1

[18] = test system: velvetleaf (Abutilon theophrasti); assay: Test B preemergence
In short: as §1

[19] = test system: barnyardgrass (Echinochloa crus-galli); assay: Test C flooded paddy test; details: for Barnyardgrass plant response rating: Flooded Paddy, scale 0 to 100, 0 no effect, 100 complete control; for Plant response rating, Barnyardgrass / Plant response rating (scale 0 to 100), Barnyardgrass: flooded paddy test; for Plant response rating, Barnyardgrass: scale 0 to 100 (0 no effect, 100 complete control)
In short: (§2)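 Greenhouse-maintained for 12 to 14 days after treatment, the paddy plants (2-leaf stage at application) were scored visually against controls. A score of 0 denotes no effect and a score of 100 denotes complete control.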

[20] = test system: duck salad (Heteranthera limosa); assay: Test C flooded paddy test; details: for Ducksalad plant response rating: Flooded Paddy, scale 0 to 100, 0 no effect, 100 complete control; for Plant response rating, Ducksalad / Plant response rating (scale 0 to 100), Ducksalad: flooded paddy test; for Plant response rating, Ducksalad: scale 0 to 100 (0 no effect, 100 complete control)
In short: as §2

rice (Oryza saliva) [21] = assay: Test C flooded paddy test; details: for Rice plant response rating: Flooded Paddy, scale 0 to 100, 0 no effect, 100 complete control; for Plant response rating, Rice / Plant response rating (scale 0 to 100), Rice: flooded paddy test; for Plant response rating, Rice: scale 0 to 100 (0 no effect, 100 complete control)
In short: as §2

[22] = test system: smallflower flatsedge (Cyperus difformis); assay: Test C flooded paddy test; details: for Flatsedge plant response rating: Flooded Paddy, scale 0 to 100, 0 no effect, 100 complete control; for Plant response rating, Flatsedge / Plant response rating (scale 0 to 100), Flatsedge: flooded paddy test; for Plant response rating, Flatsedge: scale 0 to 100 (0 no effect, 100 complete control)
In short: as §2

Nightshade = assay: Test C preemergence; details: Rate 500 g/ha, visual evaluation after 12 to 14 days
Sunflower = assay: Test C preemergence; details: Rate 250 g/ha, scale 0 to 100, 0 no effect, 100 complete control
[23] = Rate 125 g/ha, scale 0 to 100, 0 no effect, 100 complete control
[24] = Rate 500 g/ha, scale 0 to 100, 0 is no effect, 100 is complete control, 13 to 15 days
[25] = Preemergence, Rate 500 g/ha, scale 0 to 100, 0 no effect, 100 complete control
[26] = preemergence, Rate 125 g/ha, scale of 0 to 100 where 0 is no effect and 100 is complete control, 13 to 15 days
[27] = Rate 16 g/ha, visually evaluated after 12 to 14 days, 0 = no effect, 100 = complete control
[28] = Rate 62 g/ha, visually evaluated after 12 to 14 days, 0 = no effect, 100 = complete control
[29] = under head Rate 16 g/ha, (own rate not given), after 12 to 14 days

CCC(C)c1ccn(C2CCN(c3ccc(Cl)c(OC)c3)C2=O)n1 (centres unmarked) [Compound 119]
80: Barnyardgrass plant response rating ([19]; Rate 500 g/ha)
90: Plant response rating, Cocklebur [4, 23] | Plant response rating, Lambsquarters [6] | Ducksalad plant response rating ([20]; Rate 250 g/ha)
10: Plant response rating, Rice (rice (Oryza saliva) [17]; [26])
50: Plant response rating, Surinam grass [1, 24] | Plant response rating, Morningglory [15, 26] | Rice plant response rating (rice (Oryza saliva) [21]; Rate 250 g/ha) | Rice plant response rating (rice (Oryza saliva) [21]; Rate 500 g/ha)
40: Plant response rating, Crabgrass [5] | Plant response rating, Corn (corn (Zea mays); [25]) | Plant response rating, Rice (rice (Oryza saliva) [21]; Rate 125 g/ha) | Plant response rating, Sunflower (Sunflower)
100: Plant response rating, Barnyardgrass [2, 24] | Plant response rating, Cocklebur [4, 24] | Plant response rating, Surinam grass [9, 25] | Plant response rating, Surinam grass [9, 26] | Plant response rating, Barnyardgrass [10, 25] | Plant response rating, Barnyardgrass [10, 26] | Plant response rating, Crabgrass [12, 25] | Plant response rating, Crabgrass [12, 26] | Plant response rating, Foxtail, Giant [13, 25] | Plant response rating, Foxtail, Giant [13, 26] | Plant response rating, Lambsquarters [14, 25] | Plant response rating, Lambsquarters [14, 26] | Plant response rating, Pigweed [16, 25] | Plant response rating, Pigweed [16, 26] | Ducksalad plant response rating ([20]; Rate 500 g/ha) | Flatsedge plant response rating ([22]; Rate 250 g/ha) | Flatsedge plant response rating ([22]; Rate 500 g/ha) | Plant response rating, Flatsedge ([22]; Rate 125 g/ha) | Plant response rating (0 to 100), Nightshade (Nightshade)
0: Plant response rating, Blackgrass [3, 23] | Plant response rating, Blackgrass [3, 24] | Plant response rating, Wild Oat (wild oat (Avena fatua)) | Plant response rating, Corn (corn (Zea mays); [26]) | Plant response rating, Ducksalad ([20]; Rate 62 g/ha) | Plant response rating, Flatsedge ([22]; Rate 62 g/ha)
60: Plant response rating, Pigweed [8]
70: Plant response rating, Morningglory [15, 25] | Plant response rating, Velvetleaf [18, 25] | Barnyardgrass plant response rating ([19]; Rate 250 g/ha) | Plant response rating, Barnyardgrass ([19]; Rate 125 g/ha)
20: Plant response rating, Surinam grass [1, 23] | Plant response rating, Rice (rice (Oryza saliva) [17]; [25]) | Plant response rating, Ducksalad ([20]; Rate 125 g/ha) | Plant response rating, Rice (rice (Oryza saliva) [21]; Rate 62 g/ha)
30: Plant response rating, Barnyardgrass [2, 23] | Plant response rating, Morningglory [7] | Plant response rating, Cocklebur [11, 25] | Plant response rating, Cocklebur [11, 26] | Plant response rating, Velvetleaf [18, 26] | Plant response rating, Barnyardgrass ([19]; Rate 62 g/ha)

CCOc1cccc(N2CCC(n3ccc(C(C)(C)C)n3)C2=O)c1 (centres unmarked) [Compound 130]
0: Plant response rating, Surinam grass [1, 23] | Plant response rating, Barnyardgrass [2, 23] | Plant response rating, Blackgrass [3, 23] | Plant response rating, Crabgrass [5] | Plant response rating, Wild Oat (wild oat (Avena fatua)) | Plant response rating, Cocklebur [11, 26] | Plant response rating, Velvetleaf [18, 26] | Plant response rating (scale 0 to 100), Rice (rice (Oryza saliva) [21]; [27]) | Plant response rating (scale 0 to 100), Rice (rice (Oryza saliva) [21]; [29])
40: Plant response rating, Surinam grass [1, 24]
100: Plant response rating, Surinam grass [9, 25] | Plant response rating, Surinam grass [9, 26] | Plant response rating, Barnyardgrass [10, 25] | Plant response rating, Barnyardgrass [10, 26] | Plant response rating, Crabgrass [12, 25] | Plant response rating, Crabgrass [12, 26] | Plant response rating, Foxtail, Giant [13, 25] | Plant response rating, Foxtail, Giant [13, 26] | Plant response rating, Lambsquarters [14, 25] | Plant response rating, Lambsquarters [14, 26] | Plant response rating, Morningglory [15, 25] | Plant response rating, Pigweed [16, 25] | Plant response rating, Pigweed [16, 26] | Plant response rating, Rice (rice (Oryza saliva) [17]; [25]) | Plant response rating, Rice (rice (Oryza saliva) [17]; [26]) | Barnyardgrass plant response rating ([19]; Rate 250 g/ha) | Barnyardgrass plant response rating ([19]; Rate 500 g/ha) | Plant response rating, Barnyardgrass ([19]; Rate 125 g/ha) | Ducksalad plant response rating ([20]; Rate 500 g/ha) | Plant response rating, Flatsedge ([22]; Rate 125 g/ha) | Plant response rating (scale 0 to 100), Flatsedge [22, 27] | Plant response rating (0 to 100), Nightshade (Nightshade)
50: Plant response rating, Cocklebur [4, 24] | Plant response rating, Cocklebur [11, 25] | Plant response rating, Corn (corn (Zea mays); [26]) | Plant response rating, Morningglory [15, 26] | Plant response rating, Velvetleaf [18, 25] | Plant response rating (scale 0 to 100), Barnyardgrass [19, 29] | Plant response rating (scale 0 to 100), Rice (rice (Oryza saliva) [21]; [28])
20: Plant response rating, Blackgrass [3, 24] | Plant response rating, Cocklebur [4, 23] | Plant response rating (scale 0 to 100), Ducksalad [20, 29] | Plant response rating, Rice (rice (Oryza saliva) [21]; Rate 125 g/ha)
90: Plant response rating, Barnyardgrass [2, 24] | Plant response rating, Lambsquarters [6] | Plant response rating (scale 0 to 100), Barnyardgrass [19, 28] | Ducksalad plant response rating ([20]; Rate 250 g/ha) | Plant response rating, Ducksalad ([20]; Rate 125 g/ha) | Plant response rating (scale 0 to 100), Ducksalad [20, 28] | Flatsedge plant response rating ([22]; Rate 250 g/ha) | Flatsedge plant response rating ([22]; Rate 500 g/ha) | Plant response rating (scale 0 to 100), Flatsedge [22, 28] | Plant response rating (scale 0 to 100), Flatsedge [22, 29]
70: Plant response rating, Morningglory [7] | Plant response rating, Corn (corn (Zea mays); [25]) | Plant response rating (scale 0 to 100), Barnyardgrass [19, 27] | Plant response rating (scale 0 to 100), Ducksalad [20, 27] | Plant response rating, Sunflower (Sunflower)
80: Plant response rating, Pigweed [8] | Rice plant response rating (rice (Oryza saliva) [21]; Rate 250 g/ha)
